{"source": "patent US20100152298A1", "about": "“Present invention relates to a treatment for the management of cancer more specially the use of Flutamide anti-androgen drugsa” (UNIVERSITY OF KUWAIT, priority 2008, published 2010)", "tested_on": "androgen-independent prostate cancer PC-3 cells", "test": "Growth, proliferation and viability of PC-3 cells treated with flutamide", "format": "cell-based", "conditions": "range of doses of flutamide"}
{"smiles": "CC(C)C(=O)Nc1ccc([N+](=O)[O-])c(C(F)(F)F)c1", "note": "[flutamide, Flutamide]", "values": [{"measurement": "inhibiting growth", "value": "20-70%"}]}
